Source: ChEMBL document CHEMBL1201862, “PubChem BioAssay data set” (2004)
Active and inactive are the calls of the source. Rule as the data show it: actives have a measured IC50 and inactives only a lower limit.

Molecular target: Envelope glycoprotein gp160 (Human immunodeficiency virus 1, UniProt Q6QLK5)
Experiment: cell-free HIV fusion peptide-binding blockers – biochemical, uHTS, fluorescence dequenching, […] (AID 1986)

Chain of Envelope glycoprotein gp160 (Q6QLK5 whole entry, the tested form may be a part): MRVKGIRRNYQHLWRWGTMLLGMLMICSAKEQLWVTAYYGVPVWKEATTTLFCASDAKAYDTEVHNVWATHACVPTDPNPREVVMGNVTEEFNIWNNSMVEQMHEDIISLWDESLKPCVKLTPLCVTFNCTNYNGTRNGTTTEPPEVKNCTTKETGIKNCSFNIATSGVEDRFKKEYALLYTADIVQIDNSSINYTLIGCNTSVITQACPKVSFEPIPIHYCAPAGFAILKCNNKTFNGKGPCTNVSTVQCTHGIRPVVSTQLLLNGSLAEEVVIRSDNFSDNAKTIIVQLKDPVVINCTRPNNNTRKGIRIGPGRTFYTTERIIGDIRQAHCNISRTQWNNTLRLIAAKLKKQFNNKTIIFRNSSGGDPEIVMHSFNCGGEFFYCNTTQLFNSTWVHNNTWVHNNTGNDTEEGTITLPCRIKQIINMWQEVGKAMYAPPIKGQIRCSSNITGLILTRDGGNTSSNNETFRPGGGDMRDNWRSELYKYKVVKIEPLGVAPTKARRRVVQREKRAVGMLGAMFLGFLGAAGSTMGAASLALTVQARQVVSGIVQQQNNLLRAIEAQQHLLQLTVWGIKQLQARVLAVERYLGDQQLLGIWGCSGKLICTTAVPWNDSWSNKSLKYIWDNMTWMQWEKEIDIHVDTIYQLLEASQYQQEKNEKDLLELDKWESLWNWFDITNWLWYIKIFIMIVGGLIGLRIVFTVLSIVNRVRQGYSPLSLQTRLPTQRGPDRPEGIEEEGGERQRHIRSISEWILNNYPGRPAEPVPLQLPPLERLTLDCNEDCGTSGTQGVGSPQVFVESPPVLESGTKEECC

Row | Structure (SMILES) | IC50
1 | CCOc1cc(/C=C2\C(=N)N3N=C(S(C)(=O)=O)SC3=NC2=O)ccc1OCCOc1cccc(OC)c1 | 12 µM (active)
2 | COc1cc(/C=C2/SC(=S)N(Cc3ccccc3)C2=O)ccc1OCC(=O)O | 17.3 µM (active)
3 | O=[N+]([O-])c1cc([N+](=O)[O-])c2oc(-c3ccccc3)c(Br)c2c1O | 8.02 µM (active)
